Source: patent US20100239646A1, “Sublingual methotrexate and methotrexate patches” (priority 2009, published 2010)
Blank lines part the entries; values can stand above or below the molecule they belong to.

How the values were obtained:
[1] = women; sublingual versus oral solid dosage unit; cited from earlier work
[2] = cited from earlier work
[3] = cited from earlier work; remark: listed apart in the source
[4] = oral dosage form; cited from earlier work
[5] = Absorption of oral methotrexate in a group of arthritic patients (Example-1); type: in vivo, human; settings: oral dosage form
Procedure: If 10 mg of the drug is given by the oral route only 2.0 mg is absorbed. If the optimal therapeutic dosage is tailored based on this low absorption, then the therapeutically effective dose without manifestation of significant toxic effects would be an effective accumulation of 2.0 mg of the drug in the plasma. It is reasonable to assume for antifolates that an increase of 50% of drug level in plasma relative to the accepted safe level would lead to disastrous toxic consequences including severe bone marrow depression. Therefore an increase of bioavailability from 20 to 30 percent in this case would effectively increase drug concentration by 50% in the plasma. The 10 percent increase in Bioavailability may well be envisioned by slight pH changes in the gut of patients who may be taking antacids, or medicine to modulate acid secretions, taking other medications or unknown factors. The present invention addresses this very crucial safety issues and provides a means to stabilize drug concentration in plasma to predictable levels by replacing oral dosage form of methotrexate with the sublingual dosage form, the absorption of which is independent of the biochemical pharmacology of human gut.

[6] = tested on: patients with rheumatoid arthritis; experiment: Conventional therapy of rheumatoid arthritis with methotrexate (Rheumatrex); type: in vivo, human
From the text: (§1) In order to unravel the mechanism of methotrexate non-responsiveness M. G. Nair investigated the metabolism of methotrexate and its potential deactivation pathways. […] 3; 29-34 (1996)].

[7] = tested on: aldehyde oxidase; experiment: Aldehyde oxidase mediated oxidation of methotrexate
From the text: as §1
The aldehyde oxidase mediated oxidation of methotrexate vs. certain metabolically inert antifolates was investigated by M. Gopal Nair. [Med. Chem. Research. 9:176-185, 1999].

SMILES: C[C@]12CC[C@@H]3c4ccc(O)cc4CC[C@H]3[C@@H]1CC[C@@H]2O [estradiol]
share of the oral dose needed by the sublingual route to achieve the same bioavailability [1]: 20-25%

SMILES: Nc1nc(=O)c2c([nH]1)NCC(CNc1ccc(C(=O)N[C@@H](CCC(=O)[O-])C(=O)[O-])cc1)N2C=O.[Ca+2] (stereo partly shown) [Calcium folinate]
time to improvement of odynophagia ([2]; 15 mg orally four times a day after methotrexate overdose): ≤ 24 h

absorption [5]: 20%
SMILES: CN(Cc1cnc2nc(N)nc(N)c2n1)c1ccc(C(=O)N[C@@H](CCC(=O)O)C(=O)O)cc1 [methotrexate]
solubility [3]: pH dependent | theoretical bioavailability [4]: 20-80% | toxic effects of the incorrect dose ([2]; 60 mg weekly instead of 15 mg weekly, oral tablets, rheumatoid arthritis patient): odynophagia, dysphagia and oesophagitis | severe unwanted effects ([2]; weekly dose taken in error daily or on several days each week): neutropenia, hepatotoxicity and bone marrow suppression | percentage of patients who were methotrexate non-responders [6]: 40% | drug related toxicity ([6]; some patients): elevation of liver enzymes

SMILES: CN(Cc1nc2c(N)nc(N)nc2[nH]c1=O)c1ccc(C(=O)N[C@@H](CCC(=O)O)C(=O)O)cc1 [7-hydroxymethotrexate]
antifolate activity of the oxidation product [7]: inactive
